Source: patent publication US10016383B2, “Inhibitors of metallo-β-lactamase-enzymes” (McMaster University, priority 2013, dated 2018)

What was measured:
NDM-1 [1] = target: T1, NDM-1 (Klebsiella pneumoniae, UniProt C7C422); assay: IC50 enzyme inhibition assay, nitrocefin reporter substrate; type: biochemical; parameters: All β-lactamase overexpression constructs were generated without the leader peptide in a pET-28b plasmid containing a N-terminal His Tag; His tag (N, cleaved yes); SUMO (implied by the use of SUMO protease) (N, cleaved yes); made in house; host or cells: E. coli BL21(DE3)
Method: (§1) Enzyme (NDM-1, 5 nM; VIM-2, 500 pM; CTX-M-15, 500 pM; KPC-2, 5 nM; OXA-48, 1 nM; TEM-1, 100 pM; ACE, 50 nM) was mixed with 30 μM nitrocefin (100 μM nitrocefin for TEM-1; 250 µM furanacryloyl-L-phenylalanylglycylglycine [FAPGG] for ACE^24) after a 5-10 minute preincubation with AM-A. Metallo-enzymes were supplemented with 10 μM ZnSO4. Assays were read in 96-well microplate format at 490 nm using a Spectramax reader (Molecular Devices) at 30-37° C.
(§2) E. coli strain BW25113 was modified by deletion of the bamB and tolC genes so as to increase permeability to and reduce efflux of small molecules. This strain was then further modified by the single-copy chromosomal insertion of the blaNDM-1 gene under control of the pLac promoter. Microbial natural product extracts were screened against this strain in the presence of sublethal ¼ MIC meropenem. AM-A was purified from a hit extract and its structure elucidated by NMR, mass spectrometry and polarimetry. IC50 values for AM-A were determined using nitrocefin (for MBLs and Ser BLs) and furanacryloyl-L-phenylalanylglycylglycine (for ACE)^21 as reporter substrates against the following purified enzymes: MBLs IMP-7, VIM-2, and NDM-1; SBLs CTX-M-15, KPC-2, OXA-48, and TEM-1; as well as ACE from rabbit lung. […] FIC values were determined using standard methods^27. […]

ACE from rabbit lung = target: T2, ACE from rabbit lung (Oryctolagus cuniculus, UniProt P12822); assay: IC50 enzyme inhibition assay, FAPGG reporter substrate; type: biochemical; conditions: concentration-response assays
T2 construct: as well as ACE from rabbit lung; from tissue; host or cells: rabbit lung
Method: as §1, §2

NDM-1 [2] = target: T1, NDM-1; assay: Inactivation kinetics; type: biochemical; parameters: All β-lactamase overexpression constructs were generated without the leader peptide in a pET-28b plasmid containing a N-terminal His Tag; His tag (N, cleaved yes); SUMO (implied by the use of SUMO protease) (N, cleaved yes); made in house; host or cells: E. coli BL21(DE3)
Method: NDM-1 (50 nM) was added to 20 μM nitrocefin containing AM-A in serial ½ dilutions from 8 μM. The assay was performed in 50 mM HEPES pH 7.5, 200 μL final volume. The assay was read in 96-well microplate format at 490 nm using a Spectramax reader (Molecular Devices) for 10 minutes at 37° C. VIM-2 (10 nM) was added to 20 μM nitrocefin containing AM-A in serial ½ dilutions from 16 μM. The assay was performed in 50 mM HEPES pH 7.5, 200 μL final volume. The assay was read in 96-well microplate format at 490 nm using a Spectramax reader (Molecular Devices) for 10 minutes at 37° C. as reported previously. For all assays experiments the offset between reaction initiation and the first read was ˜6s.
Rate constants characterizing the inactivation of enzyme were calculated based on the dependence of the pseudo-first order rate constant, ki, upon AM-A concentration according to the following model:
[formula] where E•Zn, A, E•Zn•A, and Zn•A are the active metalloenzyme, AM-A, the ternary metalloenzyme-AM-A complex, and AM-A-metal complex, respectively. Ki represents the dissociation constant of the ternary complex and k+2 is the rate constant for dissociation of ternary complex into inactivated enzyme (Einact) and AM-A-Zn complex. […]
[formula] […] The individual values of Ki and k+2 were determined by fitting the value of ki to equation 2 as described previously^25: […]

K. pneumoniae N11-2218 = assay: Mouse systemic infection, organ bacterial load; type: in vivo, CD1 mice
Text: All animals were housed in specific pathogen-free units in the Central Animal Facility at McMaster University. All experimental protocols were approved by, and performed in accordance with the McMaster Animal Research Ethics Board. Female CD1 mice were purchased from Charles River.
Mice were infected intraperitoneally (ip) with a dose of 2×10^6 colony forming units (cfu) of Klebsiella pneumoniae N11-2218 for all organ bacterial load experiments, or with a dose of 5×10^7cfu for all survival experiments. For all organ bacterial load experiments, mice were euthanized 48 hours post infection, and spleen and liver were harvested. Organs were placed into 1 mL sterile PBS on ice, and then homogenized (Mixer Mill 400; Retsch). Organ homogenates were then serially diluted in PBS, and plated on Brilliant Green agar (Oxoid) for cfu enumeration. For survival curves, mice were monitored for endpoint. For all experiments, mice were treated 30 minutes post infection with a specified subcutaneous dose of either PBS, meropenem, AM-A inhibitor, or a combination of both antibiotic and inhibitor.

T1 sequence (C7C422 29-270 limits assumed): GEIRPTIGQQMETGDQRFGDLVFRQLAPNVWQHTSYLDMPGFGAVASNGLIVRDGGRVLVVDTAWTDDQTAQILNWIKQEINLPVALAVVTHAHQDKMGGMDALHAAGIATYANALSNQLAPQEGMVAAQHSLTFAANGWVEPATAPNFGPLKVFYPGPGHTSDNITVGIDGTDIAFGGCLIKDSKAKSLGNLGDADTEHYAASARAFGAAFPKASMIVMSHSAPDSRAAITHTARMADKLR
T2 sequence (P12822 34-1310): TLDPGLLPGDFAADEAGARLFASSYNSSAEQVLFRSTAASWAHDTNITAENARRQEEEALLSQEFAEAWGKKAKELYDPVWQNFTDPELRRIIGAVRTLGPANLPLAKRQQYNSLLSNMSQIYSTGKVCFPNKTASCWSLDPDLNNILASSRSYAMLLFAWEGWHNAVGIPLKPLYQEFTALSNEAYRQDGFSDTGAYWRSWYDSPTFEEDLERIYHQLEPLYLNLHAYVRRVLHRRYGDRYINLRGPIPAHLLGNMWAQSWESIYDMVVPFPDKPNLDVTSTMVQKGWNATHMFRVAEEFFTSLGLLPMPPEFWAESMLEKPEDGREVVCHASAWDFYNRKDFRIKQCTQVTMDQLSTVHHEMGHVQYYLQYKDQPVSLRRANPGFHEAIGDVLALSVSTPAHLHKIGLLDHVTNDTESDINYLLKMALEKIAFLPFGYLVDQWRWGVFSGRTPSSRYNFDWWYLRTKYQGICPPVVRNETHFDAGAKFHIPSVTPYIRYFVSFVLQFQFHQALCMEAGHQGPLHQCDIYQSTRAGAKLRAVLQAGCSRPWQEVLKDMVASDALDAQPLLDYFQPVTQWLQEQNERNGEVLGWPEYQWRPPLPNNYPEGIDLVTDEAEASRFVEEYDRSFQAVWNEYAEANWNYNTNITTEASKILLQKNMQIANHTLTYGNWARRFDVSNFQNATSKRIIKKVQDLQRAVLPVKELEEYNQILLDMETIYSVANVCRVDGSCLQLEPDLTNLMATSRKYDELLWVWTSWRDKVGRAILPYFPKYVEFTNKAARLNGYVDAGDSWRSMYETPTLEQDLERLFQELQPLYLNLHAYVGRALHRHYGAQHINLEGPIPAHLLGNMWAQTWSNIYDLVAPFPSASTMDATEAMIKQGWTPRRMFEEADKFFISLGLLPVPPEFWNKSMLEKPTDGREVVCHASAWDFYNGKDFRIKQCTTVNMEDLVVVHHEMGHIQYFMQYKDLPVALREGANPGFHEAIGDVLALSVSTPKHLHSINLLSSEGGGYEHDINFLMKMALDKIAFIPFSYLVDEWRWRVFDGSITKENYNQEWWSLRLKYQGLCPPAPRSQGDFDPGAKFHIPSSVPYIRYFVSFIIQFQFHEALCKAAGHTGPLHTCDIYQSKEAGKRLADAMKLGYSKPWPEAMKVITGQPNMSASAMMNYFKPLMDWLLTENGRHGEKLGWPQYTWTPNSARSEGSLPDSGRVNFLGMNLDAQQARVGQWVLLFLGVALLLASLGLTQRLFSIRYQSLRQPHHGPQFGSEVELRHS

N[C@H](CN[C@H](CN[C@@H](CC(=O)O)C(=O)O)C(=O)O)C(=O)O [AM-A, aspergillomarasmine A]
in vitro inhibition of NDM-1 (NDM-1 [1]): potent in vitro dose-dependent inhibition | reduction of activity of rabbit lung ACE (ACE from rabbit lung): ~35% | Ki (NDM-1 [2]): 11 nM | k+2 (inactivation rate constant) (NDM-1 [2]; time-dependent inactivation): 0.0062 s⁻¹ | bacterial load in tissues (K. pneumoniae N11-2218; AM-A alone): unaffected | bacterial load in the spleen (K. pneumoniae N11-2218; combination meropenem 10 mg/kg + AM-A 10 mg/kg, single dose, 48 hours post infection): significantly reduced
